Results on ten molecules are retold here after PMC4254045 (Bioorganic & medicinal chemistry, 2014).

Entries after “also recorded” stand apart in the source; their conditions may differ. Square brackets hold non-standard residues; d marks the D form. Peptide text beside a SMILES is read from it. dPhe(4-guanidino) = N=C(N)Nc1ccc(C[C@@H](N)C(=O)O)cc1; Phe(4-guanidino) = N=C(N)Nc1ccc(C[C@H](N)C(=O)O)cc1

For experiment [1], the target named is T1, human MrgX1 (Homo sapiens, UniProt Q96LB2). The experiment in a line: FLIPR agonist assay, HEK293 cells stably transfected with human MrgX1. In kind it is cell-based.
T1 sequence (Q96LB2 whole entry): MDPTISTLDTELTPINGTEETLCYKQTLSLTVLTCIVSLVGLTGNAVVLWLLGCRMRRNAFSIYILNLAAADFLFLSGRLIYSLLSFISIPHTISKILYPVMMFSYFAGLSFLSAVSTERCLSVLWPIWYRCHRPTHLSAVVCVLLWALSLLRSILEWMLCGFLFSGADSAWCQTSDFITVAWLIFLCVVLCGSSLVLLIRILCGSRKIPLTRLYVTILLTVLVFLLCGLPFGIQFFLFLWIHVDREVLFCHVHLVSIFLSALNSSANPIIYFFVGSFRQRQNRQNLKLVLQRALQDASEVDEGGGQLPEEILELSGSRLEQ
In a further experiment the target is T2, rat MrgC (Rattus norvegicus, UniProt Q8R4G1).
T2 sequence (Q8R4G1 1-323): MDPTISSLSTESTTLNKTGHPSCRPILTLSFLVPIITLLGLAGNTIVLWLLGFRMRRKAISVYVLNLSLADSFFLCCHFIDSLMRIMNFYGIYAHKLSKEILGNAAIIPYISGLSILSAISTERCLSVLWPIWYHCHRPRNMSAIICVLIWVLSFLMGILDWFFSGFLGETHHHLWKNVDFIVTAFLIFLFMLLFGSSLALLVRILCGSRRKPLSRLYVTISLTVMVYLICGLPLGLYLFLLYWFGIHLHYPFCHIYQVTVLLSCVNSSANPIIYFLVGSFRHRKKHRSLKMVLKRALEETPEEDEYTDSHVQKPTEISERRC
The experiment can be described thus: FLIPR agonist assay, transiently transfected HEK293 or KNRK cells, rat MrgC. Type of experiment: cell-based.

Experiment [2] deals with T3, mouse MrgC11 (Mus musculus, UniProt Q8CIP3).
T3 sequence (Q8CIP3 1-322): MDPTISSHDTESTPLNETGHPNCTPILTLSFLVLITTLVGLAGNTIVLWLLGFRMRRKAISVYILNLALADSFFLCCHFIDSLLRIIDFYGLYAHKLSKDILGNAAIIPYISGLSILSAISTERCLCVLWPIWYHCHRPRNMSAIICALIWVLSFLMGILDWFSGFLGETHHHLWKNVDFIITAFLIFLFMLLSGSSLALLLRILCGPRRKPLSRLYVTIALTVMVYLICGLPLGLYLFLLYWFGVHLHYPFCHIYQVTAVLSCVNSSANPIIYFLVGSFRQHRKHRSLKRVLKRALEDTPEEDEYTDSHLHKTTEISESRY
Conditions: cited from earlier work.

Experiment [3] addresses T3, mouse MrgC11. The experiment in a line: FLIPR agonist assay, transiently transfected HEK293 or KNRK cells, mouse MrgC11. In kind it is cell-based. Conditions: for agonist activity at mouse MrgC11 (in words): full agonism relative to BAM8-22.
Another experiment relates to rats. Conditions: cited from earlier work.
In experiment [4] the target is T1, human MrgX1. The experiment can be described thus: Antagonist activity in human MrgX1 using BAM8-22. Conditions: human MrgX1, BAM8-22 (200 nM) as agonist. Type of experiment: cell-based.
In a further experiment the test system is mice. As to conditions: cited from earlier work.
[5] abbreviates: highest concentration tested due to limited solubility.
The mark [6] stands for this setting: FLIPR, transiently transfected HEK293 or KNRK cells, average of at least three independent experiments ± SD.

Broadly, the EC50 is the concentration needed to bring the measured effect to its halfway point. Take `N=C(N)Nc1cccc(C(N)C(=O)N[C@@H](Cc2ccccc2)C(N)=O)c1` (some centres unmarked) [20a]: the half-maximal effective concentration (EC50) at human MrgX1 [1] and on rat MrgC was above 100 µM each time. Besides, on rat MrgC (FLIPR), the “agonist activity at rat MrgC (in words)” value is “failed to show agonist activity; also recorded: Neither of the analogs showed agonist activity”.
For the molecule Phe-Met-Arg-Phe-NH2, in the experiment with mouse MrgC11 [2], the “MrgC11 agonist activity (in words)” value is on record as “submicromolar”.
Turning to Phe-Met-D-Arg-Phe-NH2, on mouse MrgC11 [2], the “MrgC11 agonist activity (in words)” value was “inactive”.
For the molecule `N=C(N)NC[C@@H]1CN[C@H](C(=O)N[C@@H](Cc2ccccc2)C(N)=O)C1` [compound 16, (2S,4S)-N-((S)-1-amino-1-oxo-3-phenylpropan-2-yl)-4-(guanidinomethyl)pyrrolidine-2-carboxamide bis(trifluoroacetate)], the “agonist activity at rat MrgC (in words)” value on rat MrgC (FLIPR) is reported as “failed to show agonist activity”.
For Arg-Phe, the “EC50 for activating MrgC11 (in words)” value on mouse MrgC11 [2] is “submicromolar”.
In the case of `N=C(N)Nc1ccc(C[C@H](N)C(=O)N[C@@H](Cc2ccccc2)C(N)=O)cc1` [24a, (2S)-2-amino-N-((2S)-1-amino-1-oxo-3-phenylpropan-2-yl)-3-(4-guanidinophenyl)propanamide bis(trifluoroacetate)] (H-[Phe(4-guanidino)]-Phe-NH2), the “agonist activity at mouse MrgC11 (in words)” value at mouse MrgC11 [3] (FLIPR) is reported as “exhibited agonist activity”. The “agonist activity at rat MrgC (in words)” value on rat MrgC (FLIPR) was “exhibited agonist activity”.
For `COc1ccc(-c2ccc(C(=O)Nc3cccc(Cn4ncc(N5CCNCC5)cc4=O)c3C)cc2)cn1` [1c, reference compound], the “agonist activity at mouse MrgC11 at concentrations up to 2 μM” value at mouse MrgC11 [3] (setting [5]) is reported as “no measurable agonist activity”. Besides, the “agonist activity at human MrgX1 (in words)” value at human MrgX1 [1] (FLIPR) is reported as “selectively activated human MrgX1”. For the same molecule, at rat MrgC (setting [5]), the “agonist activity at rat MrgC at concentrations up to 2 μM” value was “no measurable agonist activity”.
Regarding `N=C(N)Nc1cccc(C(N)C(=O)N[C@@H](Cc2ccccc2)C(N)=O)c1` (some centres unmarked) [20b], the “pEC50 Mouse MrgC11” value on mouse MrgC11 [3] (setting [6]) turned out to be 4.5 ± 0.1. Besides, the “agonist activity at rat MrgC (in words)” value at rat MrgC (FLIPR) is listed as “failed to show agonist activity; also recorded: Neither of the analogs showed agonist activity”. Also, the “pEC50 Rat MrgC” value at rat MrgC (setting [6]) is below 4.
With `N=C(N)N[C@@H]1CN[C@H](C(=O)N[C@@H](Cc2ccccc2)C(N)=O)C1` [compound 12, (2S,4S)-N-((S)-1-amino-1-oxo-3-phenylpropan-2-yl)-4-guanidinopyrrolidine-2-carboxamide bis(trifluoroacetate)], at rat MrgC (FLIPR), the “agonist activity at rat MrgC (in words)” value was “failed to show agonist activity”.
On to `N=C(N)Nc1ccc(C[C@@H](N)C(=O)N[C@@H](Cc2ccccc2)C(N)=O)cc1` [24b, (2R)-2-amino-N-((2S)-1-amino-1-oxo-3-phenylpropan-2-yl)-3-(4-guanidinophenyl)propanamide bis(trifluoroacetate)] (H-[dPhe(4-guanidino)]-Phe-NH2), for which, at mouse MrgC11 [3] (FLIPR), the “agonist activity at mouse MrgC11 (in words)” value is “exhibited agonist activity”. Besides, at mouse MrgC11 [3] (relative to diastereomer 24a), the “fold more potent than 24a at mouse MrgC11” value is around 10 fold. The “effect on neuropathic pain” value with rats and with mice was “attenuated neuropathic pain” throughout. Besides, the “antagonist activity at concentrations up to 200 μM” value on human MrgX1 [4] was “Neither Arg-Phe-NH2 nor 24b, however, showed any antagonist activity”. Also, the “agonist activity at rat MrgC (in words)” value at rat MrgC (FLIPR) is on record as “exhibited agonist activity”. Moreover, on rat MrgC (relative to diastereomer 24a), the “fold more potent than 24a at rat MrgC” value is given as around 100 fold.
